Literature values, collected in US20250312371A1, “CROSS-LINKED POLYMERIC CHELATORS COMPOSITIONS AND USE THEREOF” (THE UNIVERSITY OF KANSAS, priority 2021, published 2025).

Question: What does the source list for `O=C(N[C@H]1COC(=O)[C@@H](NC(=O)c2cccc(O)c2O)COC(=O)[C@@H](NC(=O)c2cccc(O)c2O)COC1=O)c1cccc(O)c1O` [Enterobactin]?
Answer: relative iron binding constant (Fe(III)): 35.5; Log K (iron chelation): 52
